Measured values reported in patent US12264150B2, “NR4A1 ligands, pharmaceutical compositions, and related methods of use” (The Texas A&M University System, priority 2017, dated 2025).
Entries after “also recorded” stand apart in the source; their conditions may differ.

What was measured:
GAL4-NR4A1 = test: GAL4-NR4A1/UAS-Luc transactivation (luciferase) in Panc1 cells; type: cell-based
Source text: (§1) FIG. 2 graphically illustrates luciferase activity in Panc1 cells transfected with GAL4-NR4A1 and GAL4-NR4A2 and UAS-Luc (GAL4-binding luciferase construct) treated with 4-, 3- and 2-hydroxy C-DIM analogs according to embodiments of the present disclosure;
Therefore, nine substituted 4-hydroxy analogs were synthesized to investigate their relative potencies as NR4A1 ligands and their half-lives since some of the substituents buttress the hydroxy group. Their effects on activation/inactivation of GAL4-NR4A1 and GAL4-NR4A2 in Panc1 cells were determined (see FIGS. 9 and 13).

GAL4-NR4A2 = test: GAL4-NR4A2/UAS-Luc transactivation (luciferase) in Panc1 cells; type: cell-based
Source text: as §1
FIG. 13 graphically illustrates luciferase activity in Panc1 cells transfected with GAL4-NR4A2 and UAS-Luc treated with 3-hydroxy C-DIM analogs, according to embodiments of the present disclosure;
FIG. 15 graphically illustrates luciferase activity in Panc1 cells transfected with GAL4-NR4A2 and UAS-Luc treated with 2-hydroxy C-DIM analogs, according to embodiments of the present disclosure;

β1-integrin and TXNDC5 = test: Western blot down-regulation of β1-integrin and TXNDC5 in Panc1 and SKBR3 cells; type: cell-based; conditions: FIG. 3
Source text: FIG. 3 includes images of western blots of Panc1 (pancreatic) and SKBR3 (breast) cancer cells treated with monohydroxy C-DIM compounds, according to embodiments of the present disclosure, showing down-regulation of expression of two NR4A1-dependent factors, β1-integrin and TXNDC5;
Compared to the 4-bromo standard NR4A2 ligand, the 3- and 2-hydroxy isomers had minimal NR4A2 activity. […] The results correlate with the transactivation data.

SERPINB5 [1] = test: SERPINB5 induction (western blot) in SKBR3 breast cancer cells; type: cell-based; conditions: for potency order for inducing SERPINB5: western blot, FIGS. 3 and 5
Source text: FIG. 5 includes images of western blots of SKBR3 (breast) cancer cells treated with 4-, 3- and 2-hydroxy C-DIM compounds, according to embodiments of the present disclosure, showing up-regulation of expression of SERPINB5;
In this study, the DMSO (control) value was relatively high, resulting in low induction by the 4-hydroxy compound, whereas in other experiment induction was observed due to lower basal SERPINB5 levels.

RMS xenograft tumor = test: RMS mouse xenograft tumor growth
[2] = tested on: human MDA-MB-231 breast cancer cells; test: Orthotopic breast tumor growth in athymic nude mice; type: in vivo, mouse; conditions: for tumor growth: 10 mg/kg/day, athymic nude mice, orthotopic model; for ED50 values for tumor growth inhibition: expected from the 10 mg/kg/day result
Description: FIGS. 12A-12C graphically illustrate mammary tumor volume in an athymic nude mouse xenograft model using human MDA-MB-231 breast cancer cells treated with 4-hydroxy C-DIM analogs (10 mg/kg/day) (black) relative to a control (gray), according to embodiments of the present disclosure;

NR4A1, Rab4, AMPK = test: Western blots of whole cell lysates of C2C12 muscle cells; type: cell-based, murine; conditions: western blot
Source text: FIGS. 25A-25D are images of western blots of whole cell lysates of C2C12 cells treated with C-DIM analogs, according to embodiments of the present disclosure;
(§2) There is also evidence that NR4A1 plays a role in enhancing glucose metabolism in muscle and this is consistent with potential anti-diabetic activity for NR4A1 ligands which has previously been reported for cytosporone-derived NR4A1 ligands in mouse models. Initial studies with DIM-C-pPhOH and second generation substituted analogs used C2C12 muscle cells as a model for investigating the anti-diabetic activity of these compounds. FIGS. 25A-25D illustrate that NR4A1 is expressed in C2C12 cells and treatment with C-DIM8 (DIM-C-pPhOH) or the second generation substituted C-DIM8 analogs 3,5-dibromo-(C-DIM8-3,5-Br2), 3-chloro-(C-DIM8-3-Cl), and 3-chloro-5-methoxy-(C-DIM8-3-Cl-5-OCH3) increased expression of NR4A1 in C2C12 cells.

G6Pase and PEPCK = G6Pase and PEPCK in glucose-starved HepG2 cells; type: cell-based
[3] = Blood glucose in C57BL/6 mice on a high-fat diet; type: in vivo, mouse
NR4A2 LBD = target: T1, NR4A2 LBD (Homo sapiens, UniProt P43354); test: Surface plasmon resonance binding, immobilized NR4A2 LBD; conditions: 5 or 10 μM ligand, 25° C., Biacore 3000, CM5 chip
T1 construct: Purified NR4A1 and NR4A2 LBD proteins were covalently immobilized
T1 sequence (P43354 360-595 limits assumed, species assumed): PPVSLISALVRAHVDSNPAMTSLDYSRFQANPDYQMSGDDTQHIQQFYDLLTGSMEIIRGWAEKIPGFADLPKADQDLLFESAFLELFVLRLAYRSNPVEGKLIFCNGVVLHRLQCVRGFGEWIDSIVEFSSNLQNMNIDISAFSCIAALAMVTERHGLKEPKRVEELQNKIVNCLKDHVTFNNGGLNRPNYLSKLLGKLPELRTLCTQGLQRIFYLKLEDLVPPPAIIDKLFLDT
Description: (§3) Binding experiments were performed using the SPR method at 25° C. on Biacore 3000 system (GE Healthcare). Purified NR4A1 and NR4A2 LBD proteins were covalently immobilized on CM5 sensor chip (GE) using an amine coupling procedure. Alternatively, the more expensive his-tag-binding NTA sensor chip (GE) can be used to insure correct protein surface orientation. SPR response curves (sensorgrams) were generated after ligand injection using 5 or 10 μM DIM-C-pPhX analogs with X=Br (#2), X═OH (#8), X═CN (#10) and X═CO2Me (#14) (see FIG. 22).

NR4A1 LBD = target: T2, NR4A1 LBD (Homo sapiens, UniProt P22736); test: Surface plasmon resonance binding, immobilized NR4A1 LBD; conditions: 5 or 10 μM ligand, 25° C., Biacore 3000, CM5 chip
T2 construct: Purified NR4A1 and NR4A2 LBD proteins were covalently immobilized
T2 sequence (P22736 360-595 limits assumed, species assumed): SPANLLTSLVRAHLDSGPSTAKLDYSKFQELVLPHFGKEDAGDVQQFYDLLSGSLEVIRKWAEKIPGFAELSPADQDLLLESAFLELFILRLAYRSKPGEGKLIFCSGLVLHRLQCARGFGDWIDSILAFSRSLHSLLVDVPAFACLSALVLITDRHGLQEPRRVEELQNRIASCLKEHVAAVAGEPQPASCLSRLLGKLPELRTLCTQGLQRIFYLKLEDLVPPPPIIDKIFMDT
Description: as §3

NR4A1 = NR4A1 (Homo sapiens, UniProt P22736); test: NR4A1 binding affinity of the 4-hydroxy compound
Sequence of NR4A1 (P22736 whole entry, species assumed): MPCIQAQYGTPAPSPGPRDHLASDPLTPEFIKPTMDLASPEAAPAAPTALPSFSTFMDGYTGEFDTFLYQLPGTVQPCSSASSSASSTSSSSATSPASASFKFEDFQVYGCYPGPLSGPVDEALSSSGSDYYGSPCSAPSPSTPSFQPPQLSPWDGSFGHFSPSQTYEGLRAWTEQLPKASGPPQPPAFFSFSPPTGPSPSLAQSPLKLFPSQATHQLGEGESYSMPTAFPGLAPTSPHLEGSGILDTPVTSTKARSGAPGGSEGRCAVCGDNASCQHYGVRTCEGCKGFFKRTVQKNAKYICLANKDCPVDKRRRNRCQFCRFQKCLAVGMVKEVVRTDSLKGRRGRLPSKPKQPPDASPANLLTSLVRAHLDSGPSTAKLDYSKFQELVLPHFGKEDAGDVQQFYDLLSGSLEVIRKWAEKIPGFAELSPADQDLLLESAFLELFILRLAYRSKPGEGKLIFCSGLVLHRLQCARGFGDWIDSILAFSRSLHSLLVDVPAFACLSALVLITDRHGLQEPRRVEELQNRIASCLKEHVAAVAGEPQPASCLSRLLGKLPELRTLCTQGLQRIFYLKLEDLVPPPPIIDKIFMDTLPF

tumor growth = conditions: cited from earlier work
cancer cell lines = conditions: cited from earlier work
[4] = cited from earlier work
SERPINB5 [5] = test: SERPINB5 induction (western blot) in Panc1 cells; type: cell-based; conditions: 20 μM
[6] = tested on: NR4A1 and GLUT-4 gene expression; test: NR4A1/GLUT-4 mRNA expression in C2C12 cells; type: cell-based, murine
Source text: FIGS. 26A-26D graphically illustrate relative NR4A1/glucose transporter 4 (GLUT-4) mRNA expression in C2C12 cells treated with C-DIM analogs, according to embodiments of the present disclosure;
as §2

TXNDC5 and PAX3-FOX01A = test: Western blot of NR4A1-regulated gene products in Rh30 rhabdomyosarcoma cells; type: cell-based; conditions: 20 μM
Source text: FIG. […]
The effects of the 4-hydroxy reference compound and the nine analogs were compared with respect to down-regulation of two NR4A1-regulated gene products in Rh30 rhabdomyosarcoma cells, namely TXNDC5 and PAX3-FOX01A. […] The results also indicate that NR4A1-dependent transactivation assays appear to be less predictive than NR4A1-regulated gene products in determining differences in NR4A1 antagonist potencies.

C2C12 cells = test: Glucose uptake in C2C12 cells; type: cell-based, murine; conditions: 15 and 20 μM
Source text: FIG. 27 graphically illustrates glucose uptake in C2C12 cells treated with C-DIM analogs, according to embodiments of the present disclosure;

PFKM, PGAM2, BPGM, PYGM = test: mRNA expression of glycolytic genes in C2C12 cells; type: cell-based, murine
Source text: FIGS. 28A-28E graphically illustrate relative mRNA expression of glycolytic genes in C2C12 cells treated with DIM-C-pPhOH (A), DIM-C-pPhOH-3,5-Br2 (B), DIM-C-pPhOH-3-Cl (C), and DIM-C-pPhOH-3-Cl-5-OCH3 (D) for 24 hr, or cells were transfected with NR4A1 expression plasmid (E);
Overexpression of NR4A1 in C2C12 cells induces several genes involved in glycolysis including phosphofructokinase (PFKM), phosphoglycerate mutase 2 (PGAM2), bisphosphoglycerated mutase (BPGM), and glycogen phosphorylase M (PYGM).

Oc1cccc(C(c2c[nH]c3ccccc23)c2c[nH]c3ccccc23)c1Br [2 bromo (3-hydroxy analog)]
potency in NR4A1-dependent transactivation vs unsubstituted 3- and 4-hydroxy DIM standards (GAL4-NR4A1; substituted 3-hydroxy DIM analogs, FIG. 7): more potent

Oc1ccccc1C(c1c[nH]c2ccccc12)c1c[nH]c2ccccc12 [2-hydroxy compound]
NR4A2 activity (GAL4-NR4A2) compared to the 4-bromo reference (GAL4-NR4A2): minimal
potency in down-regulation of β1-integrin and TXNDC5 vs the 4-hydroxy compound (β1-integrin and TXNDC5): more potent
potency order for inducing SERPINB5 (SERPINB5 [1]): 2-OH/3-OH>4-OH

Oc1ccc(C(c2c[nH]c3ccccc23)c2c[nH]c3ccccc23)cc1F [3-fluoro-4-hydroxy analog]
potency as inhibitors of NR4A1-dependent transactivation relative to the 4-hydroxy reference compound (GAL4-NR4A1; tested at 7.5 μM and 15 μM): exception

Oc1cccc(C(c2c[nH]c3ccccc23)c2c[nH]c3ccccc23)c1 [3-hydroxy compound]
NR4A2 activity (GAL4-NR4A2) compared to the 4-bromo reference (GAL4-NR4A2): minimal
potency in down-regulation of β1-integrin and TXNDC5 vs the 4-hydroxy compound (β1-integrin and TXNDC5): more potent
potency order for inducing SERPINB5 (SERPINB5 [1]): 2-OH/3-OH>4-OH

Oc1c(Br)cc(C(c2c[nH]c3ccccc23)c2c[nH]c3ccccc23)cc1Br [C-DIM8-3,5-Br2]
RMS tumor growth (RMS xenograft tumor; 0.25 mg/kg/d): tumor growth inhibition
RMS tumor growth (RMS xenograft tumor; doses of 10.0, 7.5, 5.0 and 2.5 mg/kg/day): complete tumor growth inhibition
toxicity (RMS xenograft tumor; in vivo study, RMS xenograft): not observed
tumor growth [2]: inhibited tumor growth
ED50 values for tumor growth inhibition [2]: low mg/kg/day or high μg/kg/day range
expression of NR4A1 (NR4A1, Rab4, AMPK): increased
G6Pase and PEPCK mRNA levels (G6Pase and PEPCK): inhibit

COc1cc(C(c2c[nH]c3ccccc23)c2c[nH]c3ccccc23)cc(Cl)c1O [C-DIM8-3-Cl-5-OCH3]
serum glucose levels in a glucose tolerance test compared to control animals ([3]; 10 mg/kg/d): decreased
serum glucose ([3]; 25 mg/kg/d, current study): decreased
serum insulin levels ([3]; 25 mg/kg/d, current study): increased
blood glucose levels ([3]; HFD C57BL/6 mice, 10 mg/kg/d in corn oil, every second day, oral gavage): significant decrease
tumor growth [2]: inhibited tumor growth
ED50 values for tumor growth inhibition [2]: low mg/kg/day or high μg/kg/day range
expression of NR4A1 (NR4A1, Rab4, AMPK): increased

Oc1ccc(C(c2c[nH]c3ccccc23)c2c[nH]c3ccccc23)cc1Cl [C-DIM8-3-Cl]
tumor growth [2]: inhibited tumor growth
ED50 values for tumor growth inhibition [2]: low mg/kg/day or high μg/kg/day range
expression of NR4A1 (NR4A1, Rab4, AMPK): increased

Brc1ccc(C(c2c[nH]c3ccccc23)c2c[nH]c3ccccc23)cc1 [DIM-C-pPhBr, 1,1-bis(3′-indolyl)-1-(p-bromophenyl)methane]
SPR binding to NR4A2 (NR4A2 LBD): sticky interactions
SPR binding to NR4A1 (NR4A1 LBD): sticky interactions

Oc1ccc(C(c2c[nH]c3ccccc23)c2c[nH]c3ccccc23)cc1 [DIM-C-pPhOH]
SPR binding to NR4A1 (NR4A1 LBD): bound with high affinity
binding to NR4A1 (NR4A1): high affinity
expression of NR4A1 (NR4A1, Rab4, AMPK): increased
partial tumor growth inhibition (tumor growth; 30-40 mg/kg/day, previous studies): 40-50%
doses at which tumor growth is (partially) inhibited (tumor growth; mouse, in vivo): 30 to 40 mg/kg/day
doses at which tumor growth is only partially inhibited (tumor growth; mouse, in vivo): 40 to 50 mg/kg/day
receptor-independent activities such as mitochondrial toxicity (cancer cell lines; cancer cell lines): minimal
concentrations that block the pro-oncogenic pathways (cancer cell lines; cell culture): 10 to 20 µM
in vivo half-life [4]: short; also recorded: very short
serum half-life ([4]; in vivo): relatively short
G6Pase and PEPCK mRNA levels (G6Pase and PEPCK): inhibit
induction of SERPINB5 (SERPINB5 [5]): induced SERPINB5
NR4A1 and GLUT-4 gene expression [6]: induce
concentration of maximal induction of NR4A1 and GLUT-4 gene expression [6]: 20 µM
decreased expression of TXNDC5 and PAX3-FOX01A (TXNDC5 and PAX3-FOX01A): 50-60%
induction of SERPINB5 (SERPINB5 [1]; SKBR3 cells, 20 μM, DMSO control value relatively high): minimally induced
potency order for inducing SERPINB5 (SERPINB5 [1]): 2-OH/3-OH>4-OH
concentration at which significant inhibition of GAL4-NR4A1 transactivation was observed (GAL4-NR4A1; not at 15 μM (steep dose response curve)): 22.5 µM
glucose uptake (C2C12 cells): significantly induced

CN(C)C(=N)N=C(N)N [metformin]
expression of glycolytic genes PFKM, PGAM2, BPGM, PYGM (PFKM, PGAM2, BPGM, PYGM): significantly induced
NR4A1 and GLUT-4 gene expression [6]: induce
